Experimental data from US20210395306A1, “POLYPEPTIDES FOR THE TREATMENT OF STRESS, IMMUNOREACTION AND STROKE SYNDROMES” (Neopep Pharma GmbH & Co. KG, priority 2018, published 2021).

System: Pancreas carcinoma cells
Experiment: Cancer cell invasion assay on humanized rats with implanted pancreas carcinoma cells
Assay type: in vivo
Conditions: pancreas carcinoma implant
Description: The cancer cell invasion assay was performed on humanized rats (Eyol, E. et al., Oncology Reports, 28: 2177-2187, 2012). Pancreas carcinoma cells were implanted. The successful implant was observed by luminescent imaging as well as by an increase in CXCR4 expression.
After a successful implant of carcinoma cells, the rats were treated with a peptide according to SEQ ID No. 1. The results after 1 week of therapy (1 w of therapy), after 2 weeks of therapy (2 w of therapy) and 2 weeks after end of therapy are depicted in the below table.

## LVRYTQKAPQVS (human) [SEQ ID No. 1]
10 mg peptide, 1 w of therapy
  Tumor growth / remission: No tumor growth
20 mg peptide, 1 w of therapy
  Tumor growth / remission: No tumor growth
20 mg peptide, 2 w after end of therapy
  Tumor growth / remission: Complete
20 mg peptide, 2 w of therapy
  Tumor growth / remission: Complete
70 mg peptide, 1 w of therapy
  Tumor growth / remission: No tumor growth
70 mg peptide, 2 w after end of therapy
  Tumor growth / remission: Complete
70 mg peptide, 2 w of therapy
  Tumor growth / remission: Remission
